Patent US20120214847A1, “2-[1-PHENYL-5-HYDROXY-4a-SUBSTITUTED-HEXAHYDROCYCLOPENTA[F]INDAZOL-5-YL]ETHYL PHENYL DERIVATIVES AS GLUCOCORTICOID RECEPTOR LIGANDS” (Merck Sharp & Dohme Corp., priority 2009, published 2012)

Target: T1, human GR (Homo sapiens, UniProt P04150)
T1 construct: naturally expresses the human GR; endogenous in cells
T1 sequence (P04150 1-777): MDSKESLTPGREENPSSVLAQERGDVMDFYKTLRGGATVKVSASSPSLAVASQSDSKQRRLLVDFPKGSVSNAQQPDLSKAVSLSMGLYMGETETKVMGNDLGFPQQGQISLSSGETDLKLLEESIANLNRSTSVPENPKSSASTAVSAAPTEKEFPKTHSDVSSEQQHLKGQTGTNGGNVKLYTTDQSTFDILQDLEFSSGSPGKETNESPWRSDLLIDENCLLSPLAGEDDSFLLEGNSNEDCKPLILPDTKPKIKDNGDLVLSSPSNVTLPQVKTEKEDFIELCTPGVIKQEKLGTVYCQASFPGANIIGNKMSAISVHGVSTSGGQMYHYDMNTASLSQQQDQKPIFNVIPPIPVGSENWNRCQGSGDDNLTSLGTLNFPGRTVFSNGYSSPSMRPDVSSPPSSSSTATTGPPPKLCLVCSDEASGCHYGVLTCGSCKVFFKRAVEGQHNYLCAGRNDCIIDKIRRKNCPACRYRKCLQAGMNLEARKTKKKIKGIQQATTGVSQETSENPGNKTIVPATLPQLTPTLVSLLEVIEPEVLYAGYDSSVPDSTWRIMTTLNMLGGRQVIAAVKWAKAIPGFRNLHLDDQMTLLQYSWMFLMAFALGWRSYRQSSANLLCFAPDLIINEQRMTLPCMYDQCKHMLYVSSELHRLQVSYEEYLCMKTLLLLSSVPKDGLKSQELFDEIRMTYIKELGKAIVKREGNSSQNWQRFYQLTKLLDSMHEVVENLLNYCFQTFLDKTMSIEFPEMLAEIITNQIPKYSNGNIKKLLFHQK
Test: Trans-activation modulation of glucocorticoid receptor (GRAMMER), MMTV-LUC reporter in A549 cells
Type: cell-based
Details: for Transactivation A549 Cells Grammer Emax (%) / Emax: Emax relative to the activity obtained with 300 nM dexamethasone; for Transactivation A549 Cells Grammer Emax (%) / EC50: A549 cells; for EC50: IP = inflection point, read-out: Transactivation A549 Cells Grammer IP; for Emax: A549, A549 cells, read-out: Transactivation A549 Cells Grammer Emax (%)

| Transactivation A549 Cells Grammer Emax (%) | EC50 [nM] | Emax [%] | SMILES |
| --- | --- | --- | --- |
| 7 | 125 |  | NC(=O)C(O)c1ccccc1CC[C@]1(O)CCC2=Cc3c(cnn3-c3ccc(F)cc3)C[C@@]21C1CC1 (single isomer, unassigned) [Example 3a] |
| 8 | 46 |  | OC(C[C@]1(O)CCC2=Cc3c(cnn3-c3ccc(F)cc3)C[C@@]21C1CC1)c1ccc(F)cn1 (single isomer, unassigned) [Example 79b] |
| 20 | 285 |  | CC[C@]12Cc3cnn(-c4ccccc4)c3C=C1CC[C@@]2(O)CC(O)c1ccccn1 (single isomer, unassigned) [Example 82a] |
| 10 | 174 |  | CC[C@]12Cc3cnn(-c4ccccc4)c3C=C1CC[C@@]2(O)CC(O)c1ccccn1 (single isomer, unassigned) [Example 82b] |
|  | 22 | 24 | OCc1ccccc1CC[C@]1(O)CCC2=Cc3c(cnn3-c3ccc(F)cc3)C[C@@]21C1CC1 [Example 2, (4aR,5R)-4a-Cyclopropyl-1-(4-fluorophenyl)-5-{2-[2-(hydroxymethyl)phenyl]ethyl}-1,4,4a,5,6,7-hexahydrocyclopenta[f]indazol-5-ol] |
|  | 56 | 38 | CC[C@]12Cc3cnn(-c4ccc(F)cc4)c3C=C1CC[C@@]2(O)CCc1ncccc1S(C)(=O)=O [Example 80, (4aS,5R)-4a-Ethyl-1-(4-fluorophenyl)-5-{2-[3-(methylsulfonyl)pyridin-2-yl]ethyl}-1,4,4a,5,6,7-hexahydrocyclopenta[f]indazol-5-ol] |
|  | 96 | 36 | CC[C@]12Cc3cnn(-c4ccccc4)c3C=C1CC[C@@]2(O)CCc1ncccc1S(=O)(=O)C(C)C [Example 81, (4aS,5R)-4a-Ethyl-5-{2-[3-(iso-propylsulfonyl)pyridin-2-yl]ethyl}-1-phenyl-1,4,4a,5,6,7-hexahydrocyclopenta[f]indazol-5-ol] |
